The target in experiment [1] is T1, G protein-coupled receptor kinase 6 (Homo sapiens, UniProt P43250). As to the kind of experiment: Inhibition of recombinant full-length human GRK6 using casein as substrate measured after 80 mins in presence of [gamma33P]ATP by radiometric scintillation counting method.
In experiment [2] the target is T2, Aurora kinase A (Homo sapiens, UniProt O14965).
T2 sequence (O14965 whole entry): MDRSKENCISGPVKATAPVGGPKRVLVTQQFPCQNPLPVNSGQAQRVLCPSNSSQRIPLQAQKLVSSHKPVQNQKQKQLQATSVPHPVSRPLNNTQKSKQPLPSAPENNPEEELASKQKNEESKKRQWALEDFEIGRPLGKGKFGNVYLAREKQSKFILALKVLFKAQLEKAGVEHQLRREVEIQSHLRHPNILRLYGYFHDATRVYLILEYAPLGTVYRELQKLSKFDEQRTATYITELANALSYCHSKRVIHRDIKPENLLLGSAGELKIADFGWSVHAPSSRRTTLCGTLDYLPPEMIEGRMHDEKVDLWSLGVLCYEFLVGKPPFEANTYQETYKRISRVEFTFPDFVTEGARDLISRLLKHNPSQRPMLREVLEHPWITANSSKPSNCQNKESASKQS
As to the kind of experiment: Inhibition of recombinant full length human Aurora A using LRRASLG as substrate incubated for 40 mins in presence of [gamma-33ATP] by radiometric scintillation counting method.

In experiment [3] the target is Serine/threonine-protein kinase Chk2 (Homo sapiens, UniProt O96017). As to the kind of experiment: Inhibition of recombinant human CHK2 (5 to end residues) using KKKVSRSGLYRSPSMPENLNRPR as substrate incubated for 40 mins in presence of [gamma-33ATP] by scintillation counting based radiometry assay.
Chain of Serine/threonine-protein kinase Chk2 (O96017 whole entry, the tested form may be a part): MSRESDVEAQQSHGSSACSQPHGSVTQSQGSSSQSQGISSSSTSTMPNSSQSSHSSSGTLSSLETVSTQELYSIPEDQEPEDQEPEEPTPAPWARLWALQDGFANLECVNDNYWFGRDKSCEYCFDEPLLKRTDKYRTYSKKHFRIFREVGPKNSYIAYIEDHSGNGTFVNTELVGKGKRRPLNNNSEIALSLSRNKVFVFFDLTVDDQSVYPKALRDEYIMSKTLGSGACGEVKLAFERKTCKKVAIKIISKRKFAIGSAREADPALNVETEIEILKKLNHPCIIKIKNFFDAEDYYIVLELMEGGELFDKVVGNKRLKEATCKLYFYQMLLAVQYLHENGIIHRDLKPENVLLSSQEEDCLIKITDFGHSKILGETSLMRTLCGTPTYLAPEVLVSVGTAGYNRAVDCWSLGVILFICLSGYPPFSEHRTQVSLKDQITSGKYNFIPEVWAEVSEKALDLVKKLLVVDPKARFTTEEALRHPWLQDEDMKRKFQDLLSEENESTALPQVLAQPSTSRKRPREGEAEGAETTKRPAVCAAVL
Experiment [4] deals with Focal adhesion kinase 1 (Homo sapiens, UniProt Q05397). Put plainly: Inhibition of recombinant human FAK (411 to 686 residues) using EEEEYEEEEEEYY as substrate incubated for 40 mins in presence of [gamma-33ATP] by scintillation counting based radiometry assay.
Chain of Focal adhesion kinase 1 (Q05397 whole entry, the tested form may be a part): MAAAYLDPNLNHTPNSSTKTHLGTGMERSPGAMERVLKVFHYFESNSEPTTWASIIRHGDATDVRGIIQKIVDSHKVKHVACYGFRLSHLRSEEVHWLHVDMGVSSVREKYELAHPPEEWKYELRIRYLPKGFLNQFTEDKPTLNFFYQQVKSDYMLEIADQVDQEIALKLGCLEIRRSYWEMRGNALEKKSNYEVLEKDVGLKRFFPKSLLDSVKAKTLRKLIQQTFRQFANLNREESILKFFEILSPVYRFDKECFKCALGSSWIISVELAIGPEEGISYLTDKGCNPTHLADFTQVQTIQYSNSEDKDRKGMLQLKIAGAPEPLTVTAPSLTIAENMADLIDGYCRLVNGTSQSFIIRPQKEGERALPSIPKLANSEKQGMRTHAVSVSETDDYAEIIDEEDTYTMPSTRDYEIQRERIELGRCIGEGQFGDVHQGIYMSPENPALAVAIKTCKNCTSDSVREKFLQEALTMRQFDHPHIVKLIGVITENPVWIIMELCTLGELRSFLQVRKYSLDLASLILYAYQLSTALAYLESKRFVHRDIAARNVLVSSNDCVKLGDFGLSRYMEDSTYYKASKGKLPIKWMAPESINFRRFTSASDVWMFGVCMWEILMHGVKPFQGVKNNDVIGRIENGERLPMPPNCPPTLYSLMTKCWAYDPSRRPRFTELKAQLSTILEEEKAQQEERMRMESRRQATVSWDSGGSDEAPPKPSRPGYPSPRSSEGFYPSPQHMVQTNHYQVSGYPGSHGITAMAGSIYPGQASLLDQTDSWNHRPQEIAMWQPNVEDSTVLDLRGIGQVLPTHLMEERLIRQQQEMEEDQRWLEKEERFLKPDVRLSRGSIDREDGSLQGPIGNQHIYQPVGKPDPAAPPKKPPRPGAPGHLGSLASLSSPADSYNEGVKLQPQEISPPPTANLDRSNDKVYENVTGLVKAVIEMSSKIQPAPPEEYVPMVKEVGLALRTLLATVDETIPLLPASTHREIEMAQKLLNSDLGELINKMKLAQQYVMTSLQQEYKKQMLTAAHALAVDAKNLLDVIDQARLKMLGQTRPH
For experiment [5], the target named is Tyrosine-protein kinase JAK2 (Homo sapiens, UniProt O60674). Put plainly: Inhibition of recombinant human JAK2 (808 to end residues) using KTFCGTPEYLAPE as substrate incubated for 40 mins in presence of [gamma33P]ATP by radiometric scintillation counting analysis.
Chain of Tyrosine-protein kinase JAK2 (O60674 whole entry): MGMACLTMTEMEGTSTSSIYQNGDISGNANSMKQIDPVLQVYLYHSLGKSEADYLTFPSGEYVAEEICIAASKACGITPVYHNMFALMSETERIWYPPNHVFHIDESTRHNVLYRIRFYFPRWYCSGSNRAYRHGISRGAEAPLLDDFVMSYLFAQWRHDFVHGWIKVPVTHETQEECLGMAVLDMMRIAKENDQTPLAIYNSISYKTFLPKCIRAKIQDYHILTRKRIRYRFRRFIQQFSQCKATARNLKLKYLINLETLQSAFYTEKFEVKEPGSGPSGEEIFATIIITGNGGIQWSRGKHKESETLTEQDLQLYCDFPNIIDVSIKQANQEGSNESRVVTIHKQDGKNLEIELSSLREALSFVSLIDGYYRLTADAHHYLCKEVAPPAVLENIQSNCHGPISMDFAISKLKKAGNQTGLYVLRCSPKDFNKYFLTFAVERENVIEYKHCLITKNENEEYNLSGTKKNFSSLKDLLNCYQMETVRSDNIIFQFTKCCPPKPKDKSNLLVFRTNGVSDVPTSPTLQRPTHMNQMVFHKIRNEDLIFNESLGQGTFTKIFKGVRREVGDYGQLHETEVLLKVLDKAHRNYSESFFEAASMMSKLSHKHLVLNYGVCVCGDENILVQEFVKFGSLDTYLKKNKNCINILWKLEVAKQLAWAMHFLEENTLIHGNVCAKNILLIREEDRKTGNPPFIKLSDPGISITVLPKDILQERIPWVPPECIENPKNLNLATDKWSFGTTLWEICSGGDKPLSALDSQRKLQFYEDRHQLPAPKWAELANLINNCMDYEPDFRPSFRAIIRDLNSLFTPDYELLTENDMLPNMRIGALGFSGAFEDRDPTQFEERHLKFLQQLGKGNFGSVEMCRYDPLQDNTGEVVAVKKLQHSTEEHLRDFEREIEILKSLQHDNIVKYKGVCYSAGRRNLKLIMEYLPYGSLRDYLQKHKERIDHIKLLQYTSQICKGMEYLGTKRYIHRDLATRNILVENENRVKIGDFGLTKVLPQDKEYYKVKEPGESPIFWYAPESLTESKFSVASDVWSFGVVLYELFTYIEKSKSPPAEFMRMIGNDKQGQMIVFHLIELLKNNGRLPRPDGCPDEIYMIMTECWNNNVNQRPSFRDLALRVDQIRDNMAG
Experiment [6] concerns the target T3, Rhodopsin kinase GRK1 (Homo sapiens, UniProt Q15835).
T3 sequence (Q15835 whole entry): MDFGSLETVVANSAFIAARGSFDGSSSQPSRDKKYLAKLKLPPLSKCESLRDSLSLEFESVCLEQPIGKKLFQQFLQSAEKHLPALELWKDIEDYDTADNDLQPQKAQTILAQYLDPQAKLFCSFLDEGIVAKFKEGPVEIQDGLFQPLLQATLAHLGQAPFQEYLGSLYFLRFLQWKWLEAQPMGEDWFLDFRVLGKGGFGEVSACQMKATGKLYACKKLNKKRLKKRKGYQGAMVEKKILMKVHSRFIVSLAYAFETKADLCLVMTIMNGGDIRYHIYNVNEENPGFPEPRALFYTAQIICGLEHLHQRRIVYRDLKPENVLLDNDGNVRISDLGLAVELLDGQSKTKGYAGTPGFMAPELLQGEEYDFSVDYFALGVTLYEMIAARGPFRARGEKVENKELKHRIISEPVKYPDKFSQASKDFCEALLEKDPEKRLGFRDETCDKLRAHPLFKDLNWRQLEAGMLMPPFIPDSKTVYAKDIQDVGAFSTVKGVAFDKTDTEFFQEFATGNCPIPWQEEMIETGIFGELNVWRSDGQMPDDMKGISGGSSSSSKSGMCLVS
As to the kind of experiment: Inhibition of human GRK1 using casein as substrate in presence of [gamma33P]ATP by radiometric hotspot kinase assay.

The target in experiment [7] is T4, G protein-coupled receptor kinase 3 (Homo sapiens, UniProt P35626).
T4 sequence (P35626 whole entry): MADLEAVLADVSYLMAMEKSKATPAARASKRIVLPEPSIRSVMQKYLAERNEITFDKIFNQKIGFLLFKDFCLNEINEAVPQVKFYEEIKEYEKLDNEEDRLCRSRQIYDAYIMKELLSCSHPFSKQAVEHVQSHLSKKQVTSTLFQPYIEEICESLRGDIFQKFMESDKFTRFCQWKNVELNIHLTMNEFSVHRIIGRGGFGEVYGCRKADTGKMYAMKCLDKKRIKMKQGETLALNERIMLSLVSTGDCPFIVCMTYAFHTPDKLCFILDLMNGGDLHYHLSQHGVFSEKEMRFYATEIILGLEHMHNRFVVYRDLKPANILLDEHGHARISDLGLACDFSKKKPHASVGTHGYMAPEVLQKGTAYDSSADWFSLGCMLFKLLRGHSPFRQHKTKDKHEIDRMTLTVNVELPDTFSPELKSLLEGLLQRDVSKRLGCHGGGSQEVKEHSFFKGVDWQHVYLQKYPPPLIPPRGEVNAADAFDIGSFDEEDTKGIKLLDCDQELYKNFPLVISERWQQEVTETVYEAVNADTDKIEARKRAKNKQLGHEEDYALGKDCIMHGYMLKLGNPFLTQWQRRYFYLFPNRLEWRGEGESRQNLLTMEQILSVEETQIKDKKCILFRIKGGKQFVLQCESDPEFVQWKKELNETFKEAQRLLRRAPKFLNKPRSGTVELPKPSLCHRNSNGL
Put plainly: Inhibition of human GRK3 using casein as substrate in presence of [gamma33P]ATP by radiometric hotspot kinase assay.

In experiment [8] the target is G protein-coupled receptor kinase 4 (Homo sapiens, UniProt P32298). As to the kind of experiment: Inhibition of human GRK4 using casein as substrate in presence of [gamma33P]ATP by radiometric hotspot kinase assay.
Chain of G protein-coupled receptor kinase 4 (P32298 whole entry): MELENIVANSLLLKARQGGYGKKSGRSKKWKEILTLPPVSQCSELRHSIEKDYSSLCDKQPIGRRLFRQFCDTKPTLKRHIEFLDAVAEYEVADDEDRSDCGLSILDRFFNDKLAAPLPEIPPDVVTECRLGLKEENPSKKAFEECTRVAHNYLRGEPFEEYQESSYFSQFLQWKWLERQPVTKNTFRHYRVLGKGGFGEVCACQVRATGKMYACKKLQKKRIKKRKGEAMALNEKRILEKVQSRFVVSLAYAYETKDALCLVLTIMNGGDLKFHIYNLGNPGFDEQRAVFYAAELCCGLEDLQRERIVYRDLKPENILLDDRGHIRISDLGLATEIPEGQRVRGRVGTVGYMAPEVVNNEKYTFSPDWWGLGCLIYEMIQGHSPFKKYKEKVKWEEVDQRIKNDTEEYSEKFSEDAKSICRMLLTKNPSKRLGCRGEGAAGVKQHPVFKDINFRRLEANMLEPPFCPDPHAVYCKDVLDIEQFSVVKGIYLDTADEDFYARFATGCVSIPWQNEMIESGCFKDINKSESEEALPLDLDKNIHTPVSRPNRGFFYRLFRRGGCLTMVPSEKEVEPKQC
Experiment [9] deals with T1, G protein-coupled receptor kinase 6. Put plainly: Inhibition of human GRK6 using casein as substrate in presence of [gamma33P]ATP by radiometric hotspot kinase assay.
Experiment [10] has the same target. As to the kind of experiment: Binding affinity to FLAG-tagged GRK6 in human KMS11 cells incubated for […] by ITDR assay. Format: cell-based, KMS-11.

T1 sequence (P43250 whole entry): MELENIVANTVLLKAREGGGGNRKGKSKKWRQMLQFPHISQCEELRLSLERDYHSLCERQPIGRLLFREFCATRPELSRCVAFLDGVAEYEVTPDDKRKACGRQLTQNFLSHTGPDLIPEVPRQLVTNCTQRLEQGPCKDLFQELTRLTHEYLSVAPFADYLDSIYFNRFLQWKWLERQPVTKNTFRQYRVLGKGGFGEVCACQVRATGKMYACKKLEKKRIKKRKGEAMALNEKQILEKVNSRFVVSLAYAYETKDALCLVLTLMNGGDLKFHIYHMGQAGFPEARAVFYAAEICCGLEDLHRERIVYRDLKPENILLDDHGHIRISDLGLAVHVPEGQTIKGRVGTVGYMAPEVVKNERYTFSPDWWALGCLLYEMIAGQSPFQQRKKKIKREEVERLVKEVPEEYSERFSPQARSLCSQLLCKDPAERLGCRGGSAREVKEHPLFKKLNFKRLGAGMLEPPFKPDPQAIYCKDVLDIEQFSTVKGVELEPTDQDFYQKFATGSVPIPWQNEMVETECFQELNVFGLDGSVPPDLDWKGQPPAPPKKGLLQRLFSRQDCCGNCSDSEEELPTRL

With `CCc1cc(Nc2nc(NCc3ccc(Cl)cc3OC)nc3cccc(OC)c23)n[nH]1`, the IC50 in experiment [1] is 8 nM; in experiment [2], 8900 nM; in experiment [3], 820 nM; in experiment [4], 220 nM; in experiment [5] it was over 10000 nM; in [6], 52 nM. The IC50 in [7] is over 10000 nM; in experiment [8], 22 nM; in [9] it was 3.8 nM; in [10], 30 nM.

As a reminder, the IC50 is the concentration at which inhibition is half-maximal.

These data come from ChEMBL document CHEMBL4808217, “Design, Synthesis, and Characterization of 4-Aminoquinazolines as Potent Inhibitors of the G Protein-Coupled Receptor Kinase 6 (GRK6) for the Treatment of Multiple Myeloma” (J Med Chem, 2021).
